From US20170349532A1, “CATIONIC LIPID” (Kyowa Hakko Kirin Co., Ltd., priority 2011, published 2017)

What was measured:
[1] = tested on: CKAP5 mRNA in MIA PaCa-2 subcutaneous tumor; experiment: Test Example 3: in vivo mRNA knockdown evaluation in MIA PaCa-2 xenograft; parameters: species or system SCID mouse; settings: Example 122 preparation with CKAP5 siRNA; 48 hours after intravenous administration, 10 mg/kg siRNA, MIAPaCa-2 xenograft mouse
Method: The preparations obtained in Example 122 and 123 are subjected to an in vivo mRNA knockdown evaluation test in the following manner.
MIA PaCa-2 that is a cell line derived from human pancreas cancer is received from the JCRB Cell Bank and cultivated with high glucose-containing DMEM (manufactured by GIBCO, 11995-073) containing a 10% inactivated fetal calf serum (manufactured by GIBCO) and 1 vol % penicillin-streptomycin (manufactured by GIBCO, 26253-84) under conditions at 37° C. and 5% CO2. […] Before the administration and 48 hours after the administration, the weight of the mouse is measured. […]
With respect to the obtained tumor sample, 1 mL of a Trizol reagent (manufactured by Invitrogen, 15596-018) and zirconia beads of 5 mm are added to a 2-mL round bottom tube containing the sample charged therein, and the contents are pulverized by Tissue lyser II (manufactured by QIAGEN) under conditions of 1/25 freq, 1.5 minutes×2 times. […] A concentration of the extracted RNA is measured by a trace absorption photometer Dropsense96 (Trinean), and RNA corresponding to from 200 to 1,000 ng is subjected to reverse transfer with a Transcriptor (manufactured by Roche, 4897030). […] An mRNA amount of the specimen is calculated as a relative proportion when the mRNA amount of CKAP5 mRNA was defined as 1. […]

[2] = Average particle diameter of preparation (Zetasizer Nano ZS); format: physicochemical; settings: for Particle diameter of Preparetion: average particle diameter of cationic lipid/nucleic acid complex, Example 118 preparation: compound/PEG-DMPE Na/DSPC/cholesterol with apo-b siRNA
In short: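 Lipid nanoparticles formed by mixing cationic lipid/PEG-DMPE Na/DSPC/cholesterol (8.947/1.059/5.708/13.697 mmol/L in 90% ethanol, 37 °C) with apo-b siRNA in Tris-EDTA/citrate buffer pH 5.0, then diluted with citrate/NaCl pH 6.0 and DPBS to 10 μM siRNA. Mean complex diameter measured by dynamic light scattering.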

Compound | amount of CKAP mRNA in tumor, relative proportion [1] | in vivo mRNA knockdown rate [1] | Particle diameter of Preparetion [2] | average particle diameter of the complex between the cationic lipis and the nucleic acid in the preparation ([2]; Comparative Examples 1 to 8, prepared as Example 118 with apo-b siRNA)
CCCCC/C=C\C/C=C\CCCCCCCC(=O)OC[C@@H]1CN(C)C[C@H]1COC(=O)CCCCCCC/C=C\C/C=C\CCCCC (relative stereo) [Compound 110, trans-1-Methyl-3,4-bis(((9Z,12Z)-octadec-9,12-dienoyloxy)methyl)pyrrolidine] | 0.28 | 72% | 131.6 nm | 
CCCCCCCC/C=C\CCCCCCCCOCCN(CCOCCCCCCCC/C=C\CCCCCCCC)C(=O)[C@@H](N)CCCCN [Compound 94, (S)-2,6-Diamino-N,N-bis(2-((Z)-octadec-9-enyloxy)ethyl)hexanamido] |  |  | 137.3 nm | 
CCCCCCCCCCCCCCOCCNCCOCCCCCCCCCCCCCC [Compound 69, bis(2-(Tetradecyloxy)ethyl)amine] |  |  | 136.8 nm | 
CCCCC/C=C\C/C=C\CCCCCCCCOC1CN(Cc2ccccc2)C[C@H]1OCCCCCCCC/C=C\C/C=C\CCCCC (stereo in doubt) [Compound VI-3, (3R,4R)-1-Benzyl-3,4-bis((9Z,12Z)-octadec-9,12-dienyloxy)pyrrolidine, reference compound] |  |  |  | 167.8 nm
